In patent publication US11414385B2, “Compounds and methods for treating, detecting, and identifying compounds to treat apicomplexan parasitic diseases” (The University of Chicago, priority 2015, dated 2022):
≈ marks a conversion by molar mass, not a printed value. Like-named read-outs stand apart in the source and are kept apart here.

Experiments:
[1] = tested on: T. gondii tachyzoites (RH-YFP strain); test: In vitro challenge assay for Toxoplasma tachyzoites (RH-YFP in HFF, fluorescence); format: cell-based, Toxoplasma gondii
Method in brief: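 Confluent HFF monolayers infected with 3200 RH-YFP tachyzoites for 1-2 h, then compounds added (screen at 10 μM-10 nM; follow-up 1 μM-31.25 nM) and incubated 72 h at 37 °C. YFP fluorescence served as the measure of parasite burden; IC50 by graphical analysis.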

[2] = Microsomal metabolic stability, human; format: in vitro ADME; conditions: for half-life: human, liver microsomes
[3] = Aqueous kinetic solubility pH 7.4; format: physicochemical; conditions: for solubility kinetic: PBS pH 7.4
[4] = in vitro; format: in vitro ADME; conditions: dog, MDCK-MDR1
[5] = tested on: MDR1; test: in vitro; format: in vitro ADME; conditions: dog, MDCK-MDR1, MDCK-MDR1 Efflux Ratio
[6] = Toxoplasma gondii, RH-YFP, read-out: Tachy IC50
[7] = PBS, pH 7.4, aqueous buffer, kinetic from dmso stock

Compound | IC50 ([1]; Toxoplasma gondii, read-out: IC50 against tachyzoites / active infection) | IC50 [1, 6] | IC90 ([1]; Toxoplasma gondii, read-out: IC 90 against Toxoplasma gondii tachyzoites) | Human liver microsomes T1/2 [2] | remaining after 45 mins in human liver microsomes ([2]; 45 mins) | solubility kinetic [3, 7] | Papp A→B [4] | efflux ratio [5] | IC50 ([1]; Toxoplasma gondii, RH-YFP strain, read-out: T. gondii Tachyzoite IC50) | reduction of RH YFP tachyzoites in tissue culture ([1]; low nanoM levels) | Human microsomal stability T1/2 [2] | half-life ([2]; read-out: Human liver microsomes T1/2) | half-life ([2]; read-out: Human microsomal stability T1/2) | solubility kinetic [3] | solubility ([3]; aqueous buffer, kinetic from dmso stock, 100 mM Phosphate Buffer (pH 7.4)) | improved aqueous kinetic solubility (pH 7.4) over ELQ 271 ([3]; relative to ELQ 271)
Cc1[nH]c2c(c(=O)c1-c1ccc(Oc3ccc(OC(F)(F)F)cc3)cc1)CCCC2 [JAG21, 2-methyl-3-(4-(4-(trifluoromethoxy)phenoxy)phenyl)-5,6,7,8-tetrahydroquinolin-4(1H)-one] | 188 nM | 90 nM | < 125 nM | ∞ | > 99% | 7 µM (≈ 2.91 µg/mL) | > 10 ×10⁻⁶ cm/s | < 1.5 |  |  |  |  |  |  |  | 
Cc1[nH]c2c(c(=O)c1-c1ccc(Oc3ccccc3)cc1)CCCC2 [MJM170] |  | 30 nM |  |  |  | 2 µM (≈ 0.663 µg/mL) | 32.1 ×10⁻⁶ cm/s | < 1.5 | 30 nM | markedly reduces RH YFP tachyzoites | 2.438 h | 2.44 h | 2.43 h | 1.97 µM (≈ 0.653 µg/mL) | 1.97 µM (≈ 0.653 µg/mL) | 10 fold
